{
  "source": "patent US10894772B2",
  "about": "“Flavor modulator having pyridine derivative or salt thereof as active ingredient” (T. HASEGAWA CO., LTD., priority 2015, dated 2021)",
  "format_in_all_cases": "in vivo",
  "key": {"panelists [1]": {"tested_on": "panelists", "assay": "Confirmation of umami imparting and saltiness enhancing effect in 0.3 mass % sodium chloride (point score)", "settings": "average point of 10 panelists vs control, 0 no change, 1 slightly higher, 2 higher, 3 considerably higher, 4 extremely higher umami and saltiness, 5 bitter as lacking balance", "method": "An aqueous 0.3 mass % sodium chloride solution (control), and solutions of the invention products 1 to 6 each dissolved in a 0.3 mass % sodium chloride solution to have the concentration shown in Table 5 were prepared. As a comparative product, a solution was prepared by dissolving the comparative product 1 in 0.3 mass % sodium chloride. Well-trained 10 panelists tasted the solutions for organoleptic evaluation of umami impartment and saltiness enhancement.\nUmami and saltiness scores are as follows, based on the aqueous 0.3 mass % sodium chloride solution as a control. Each sample was given any of a point 0, no change from control; 1, slightly higher umami and saltiness than control; 2, higher umami and saltiness than control; 3, considerably higher umami and saltiness than control; 4, extremely higher umami and saltiness than control; and 5, bitter as lacking balance of umami and saltiness."}, "panelists [2]": {"tested_on": "panelists", "assay": "Confirmation of umami imparting and saltiness enhancing effect in 0.3 mass % sodium chloride (evaluation in words)", "settings": "average of 5 panelists, Example 108", "method": "An aqueous 0.3 mass % sodium chloride solution (control), and solutions of 2-(3-benzyloxypropyl)pyridine dissolved in a 0.3 mass % sodium chloride solution to have the concentration shown in Table 17 were prepared. As comparative products, an aqueous 0.3 mass % sodium chloride solution (control), and a solution of a comparative product, 2-(2-benzyloxyethyl)pyridine dissolved in a 0.3 mass % sodium chloride solution to have the same concentration were prepared. Well-trained 5 panelists tasted the solutions for organoleptic evaluation of umami impartment and saltiness enhancement.\nAn aqueous 0.3 mass % sodium chloride solution (control), and solutions of the invention product 201 or the reference product 202 dissolved in a 0.3 mass % sodium chloride solution to have the concentration as 2-(3-benzyloxypropyl)pyridine therein shown in the following Table 23 were prepared. Well-trained 5 panelists tasted the solutions for organoleptic evaluation of umami impartment and saltiness enhancement."}, "panelists [3]": {"tested_on": "panelists", "assay": "Confirmation of umami in water (organoleptic evaluation of taste and flavor in words)", "settings": "average of 5 panelists", "method": "A solution was prepared by dissolving 2-(3-benzyloxypropyl)pyridine (invention product 101) in water to have a concentration shown in Table 15. As a comparative product, a solution was prepared by dissolving 2-(2-benzyloxyethyl)pyridine (comparative product 1 prepared in Comparative Example 1) to have the same concentration. Well-trained 5 panelists tasted the solutions and non-added water for organoleptic evaluation of taste and flavor.\nThe invention product 101 and the comparative product 1 were individually diluted with ethanol to have a proper concentration, and then further diluted with water to prepare an aqueous solution of 2-(3-benzyloxypropyl)pyridine (invention product 101 produced in Example 101) and that of 2-(2-benzyloxyethyl)pyridine (comparative product synthesized in Comparative Example 1) each having a concentration shown in the following Table 21. Well-trained panelists tasted the solution having a different concentration and non-added water for organoleptic evaluation in point of taste and flavor. […]"}, "panelists [4]": {"tested_on": "panelists", "assay": "Confirmation of umami in water (point score)", "settings": "average point of 10 panelists, 0 no difference from control (water), 1 somewhat stronger, 2 stronger, 3 considerably stronger, 4 poor taste balance", "method": "As a comparative product, a solution was prepared by dissolving the comparative product 1 (2-(2-benzyloxyethyl)pyridine) to have the same concentration. Water with no addition was prepared as a control product. Well-trained 10 panelists tasted the solutions prepared by dissolving any the invention products 1 to 6 and the comparative product 1 for organoleptic evaluation of umami.\nUmami evaluation was based on the control product of water."}},
  "data": [
    {"smiles": "c1ccc(COCCc2ccccn2)cc1", "note": "[comparative product 1, 2-(2-benzyloxyethyl)pyridine, reference compound]", "values": [
      {"measurement": "umami and saltiness (average point)", "setting": "panelists [1]; 0.05 ppb in aqueous 0.3 mass % sodium chloride solution", "result": 0.0},
      {"measurement": "umami and saltiness (average point)", "setting": "panelists [1]; 0.1 ppb in aqueous 0.3 mass % sodium chloride solution", "result": 0.0},
      {"measurement": "umami and saltiness (average point)", "setting": "panelists [1]; 0.1 ppm in aqueous 0.3 mass % sodium chloride solution", "result": 2.1},
      {"measurement": "umami and saltiness (average point)", "setting": "panelists [1]; 0.5 ppm in aqueous 0.3 mass % sodium chloride solution", "result": 3.0},
      {"measurement": "umami and saltiness (average point)", "setting": "panelists [1]; 1 ppb in aqueous 0.3 mass % sodium chloride solution", "result": 0.6},
      {"measurement": "umami and saltiness (average point)", "setting": "panelists [1]; 2 ppm in aqueous 0.3 mass % sodium chloride solution", "result": 3.4},
      {"measurement": "umami and saltiness (average point)", "setting": "panelists [1]; 10 ppb in aqueous 0.3 mass % sodium chloride solution", "result": 1.5},
      {"measurement": "umami and saltiness (average point)", "setting": "panelists [1]; 10 ppm in aqueous 0.3 mass % sodium chloride solution", "result": 4.2},
      {"measurement": "umami and saltiness (average point)", "setting": "panelists [1]; 50 ppm in aqueous 0.3 mass % sodium chloride solution", "result": 4.8},
      {"measurement": "Organoleptic Evaluation (umami impartment and saltiness enhancement)", "setting": "panelists [2]; 0.1 ppm in 0.3 mass % sodium chloride solution", "result": "Umami as compared with control."},
      {"measurement": "Organoleptic Evaluation (umami impartment and saltiness enhancement)", "setting": "panelists [2]; 10 ppb in 0.3 mass % sodium chloride solution", "result": "Slightly umami as compared with control."},
      {"measurement": "Organoleptic Evaluation Taste", "setting": "panelists [3]; 0.1 ppm dissolved in water, Example 107", "result": "Slightly umami."},
      {"measurement": "Organoleptic Evaluation Taste", "setting": "panelists [3]; 0.1 ppm, diluted with ethanol, then with water, Reference Example 201", "result": "Slightly umami."},
      {"measurement": "Organoleptic Evaluation Taste", "setting": "panelists [3]; 1 ppm dissolved in water, Example 107", "result": "Weakly umami."},
      {"measurement": "Organoleptic Evaluation Taste", "setting": "panelists [3]; 1 ppm, diluted with ethanol, then with water, Reference Example 201", "result": "Weakly umami."},
      {"measurement": "Organoleptic Evaluation Flavor", "setting": "panelists [3]; 2 ppb dissolved in water, Example 107", "result": "Nothing at all."},
      {"measurement": "Organoleptic Evaluation Flavor", "setting": "panelists [3]; 2 ppb, diluted with ethanol, then with water, Reference Example 201", "result": "Nothing at all."},
      {"measurement": "Organoleptic Evaluation Flavor", "setting": "panelists [3]; 10 ppb dissolved in water, Example 107", "result": "Nothing at all."},
      {"measurement": "Organoleptic Evaluation Flavor", "setting": "panelists [3]; 10 ppb, diluted with ethanol, then with water, Reference Example 201", "result": "Nothing at all."},
      {"measurement": "Organoleptic Evaluation Taste", "setting": "panelists [3]; 200 ppm dissolved in water, Example 107", "result": "Strongly umami."},
      {"measurement": "Organoleptic Evaluation Taste", "setting": "panelists [3]; 200 ppm, diluted with ethanol, then with water, Reference Example 201", "result": "Strongly umami."},
      {"measurement": "umami (average point)", "setting": "panelists [4]; 0.1 ppm in water", "result": 0.8},
      {"measurement": "umami (average point)", "setting": "panelists [4]; 1 ppm in water", "result": 1.5},
      {"measurement": "umami (average point)", "setting": "panelists [4]; 2 ppb in water", "result": 0.0},
      {"measurement": "umami (average point)", "setting": "panelists [4]; 10 ppb in water", "result": 0.1},
      {"measurement": "umami (average point)", "setting": "panelists [4]; 20 ppm in water", "result": 2.2},
      {"measurement": "umami (average point)", "setting": "panelists [4]; 200 ppm in water", "result": 2.8},
      {"measurement": "umami (average point)", "setting": "panelists [4]; 500 ppm in water", "result": 3.3},
      {"measurement": "umami (average point)", "setting": "panelists [4]; 2000 ppm in water", "result": 3.8}
    ]}
  ]
}
